Measured values from PubChem BioAssay AID292 (DTP/NCI, 2004).
Several values for one entry are separate records, joined by “and”; a condition that tells them apart may be missing. Equal values may be shown once. Inconclusive results and toxic doses are left out.

Test system: B6C3F1 mice, ip Sarcoma M5076, median survival T/C
Test: NCI In Vivo Anticancer Drug Screen. Data for tumor model Sarcoma M5076 (intraperitoneal) in B6C3F1 mice
Conditions: endpoint: median survival time, schedule: Q04DX004 (ip), higher = longer survival
Experimental: The antitumor activity of compounds was measured in mice bearing transplantable tumors. Survival or tumor size were measured and the results are expressed as the measurement made in the treated group (T) divided by the measurement made in the vehicle treated control group (C). The tumor model used in this assay is Sarcoma M5076 (intraperitoneal) in B6C3F1 mice

[1] = dose: 50.0 mg/kg/injection, vehicle: saline with Tween-80
[2] = dose: 100.0 mg/kg/injection, vehicle: saline with Tween-80
[3] = dose: 200.0 mg/kg/injection, vehicle: saline with Tween-80
[4] = dose: 12.5 mg/kg/injection, vehicle: saline with Tween-80
[5] = dose: 25.0 mg/kg/injection, vehicle: saline with Tween-80
[6] = dose: 12.5 mg/kg/injection, vehicle: Klucel (hydroxypropylcellulose) (HPC)
[7] = dose: 25.0 mg/kg/injection, vehicle: Klucel (hydroxypropylcellulose) (HPC)
[8] = dose: 50.0 mg/kg/injection, vehicle: Klucel (hydroxypropylcellulose) (HPC)
[9] = dose: 100.0 mg/kg/injection, vehicle: Klucel (hydroxypropylcellulose) (HPC)
[10] = dose: 400.0 mg/kg/injection, vehicle: saline with Tween-80
[11] = dose: 50.0 mg/kg/injection, vehicle: suspension in saline
[12] = dose: 100.0 mg/kg/injection, vehicle: suspension in saline
[13] = dose: 600.0 mg/kg/injection, vehicle: saline with Tween-80
[14] = dose: 200.0 mg/kg/injection, vehicle: Klucel (hydroxypropylcellulose) (HPC)

Cn1nnc2c(C(N)=O)ncn2c1=O
T/C (dose: 100.0 mg/kg/injection, vehicle: saline): 156 % of control
T/C (dose: 200.0 mg/kg/injection, vehicle: saline): 170 % of control

O=C(Nc1ccccc1CCl)Nc1ccccc1CCl
T/C [1]: 107 % of control
T/C [2]: 102 % of control and 110 % of control
T/C [3]: 109 % of control and 114 % of control
T/C (dose: 800.0 mg/kg/injection, vehicle: saline with Tween-80): 123 % of control

Clc1ccccc1C(Cc1c(Cl)cccc1Cl)Cn1ccnc1 (stereo unspecified)
T/C [4]: 100 % of control
T/C [5]: 101 % of control
T/C [1]: 101 % of control
T/C [2]: 93 % of control

C=C1c2cccc(O)c2C(O)=C2C(=O)[C@]3(O)C(O)=C(C(N)=O)C(=O)[C@@H](N(C)C)[C@@H]3[C@@H](O)[C@H]12
T/C [6]: 105 % of control
T/C [7]: 105 % of control
T/C [8]: 101 % of control
T/C [9]: 102 % of control

CCOC(=O)/N=[N+](\[O-])c1ccccc1
T/C (dose: 3.13 mg/kg/injection, vehicle: saline with Tween-80): 105 % of control
T/C (dose: 6.25 mg/kg/injection, vehicle: saline with Tween-80): 97 % of control
T/C [4]: 104 % of control
T/C [5]: 97 % of control
T/C [1]: 101 % of control

C=CCNC(=O)c1ccccc1SC(C)=O
T/C [1]: 103 % of control
T/C [2]: 96 % of control
T/C [3]: 90 % of control
T/C [10]: 103 % of control

CN1COc2c(n(C)c(=O)[nH]c2=O)C1
T/C [11]: 106 % of control
T/C [12]: 106 % of control
T/C (dose: 200.0 mg/kg/injection, vehicle: suspension in saline): 105 % of control
T/C (dose: 400.0 mg/kg/injection, vehicle: suspension in saline): 106 % of control
T/C (dose: 800.0 mg/kg/injection, vehicle: suspension in saline): 114 % of control

Cc1ccc(-c2c([N+](=O)[O-])c3ccccn3c2[N+](=O)[O-])cc1
T/C (dose: 75.0 mg/kg/injection, vehicle: saline with Tween-80): 97 % of control
T/C (dose: 150.0 mg/kg/injection, vehicle: saline with Tween-80): 87 % of control
T/C (dose: 300.0 mg/kg/injection, vehicle: saline with Tween-80): 87 % of control
T/C [13]: 101 % of control

N/C(=N/N=C/c1cc(Br)cc(Br)c1O)NO
T/C (dose: 25.0 mg/kg/injection, vehicle: suspension in saline): 102 % of control
T/C [11]: 98 % of control
T/C [12]: 110 % of control

COc1cc([C@@H]2c3cc4c(cc3[C@H](O)[C@H]3COC(=O)[C@H]23)OCO4)cc(OC)c1OC
T/C (dose: 2.0 mg/kg/injection, vehicle: saline with Tween-80): 117 % of control
T/C (dose: 5.8 mg/kg/injection, vehicle: saline with Tween-80): 117 % of control
T/C (dose: 15.98 mg/kg/injection, vehicle: saline with Tween-80): 154 % of control
T/C (dose: 44.4 mg/kg/injection, vehicle: saline with Tween-80): 151 % of control

Nc1nc2c(ncn2C2CC3[O][Sn]([c]4ccccc4)([c]4ccccc4)[O]CC3O2)c(=O)[nH]1 (stereo unspecified)
T/C (dose: 25.0 mg/kg/injection, vehicle: distilled water + Tween-80): 99 % of control
T/C (dose: 50.0 mg/kg/injection, vehicle: distilled water + Tween-80): 90 % of control
T/C (dose: 100.0 mg/kg/injection, vehicle: distilled water + Tween-80): 88 % of control
T/C (dose: 200.0 mg/kg/injection, vehicle: distilled water + Tween-80): 92 % of control

CCC1=C(c2cccc(OC(C)=O)c2)C(C)c2ccc(OC(C)=O)cc21 (stereo unspecified)
T/C (dose: 6.25 mg/kg/injection, vehicle: Klucel (hydroxypropylcellulose) (HPC)): 93 % of control
T/C [6]: 93 % of control
T/C [7]: 100 % of control
T/C [8]: 116 % of control
T/C [9]: 105 % of control
T/C [14]: 91 % of control

CC(=O)Nc1ccc(Nc2ccc(C(=C3C=CC(=[N+](C)CCC#N)C=C3)c3ccc(N(C)CCC#N)cc3)cc2)cc1
T/C [4]: 101 % of control
T/C [5]: 101 % of control
T/C [1]: 99 % of control
T/C [2]: 100 % of control
T/C [3]: 92 % of control

CCn1c2ccccc2c2cc(N)c(N=Nc3ccc(N(C)C)cc3)cc21
T/C (dose: 32.82 mg/kg/injection, vehicle: Klucel (hydroxypropylcellulose) (HPC)): 111 % of control
T/C (dose: 65.63 mg/kg/injection, vehicle: Klucel (hydroxypropylcellulose) (HPC)): 93 % of control
T/C (dose: 131.25 mg/kg/injection, vehicle: Klucel (hydroxypropylcellulose) (HPC)): 97 % of control
T/C (dose: 262.5 mg/kg/injection, vehicle: Klucel (hydroxypropylcellulose) (HPC)): 93 % of control
T/C (dose: 525.0 mg/kg/injection, vehicle: Klucel (hydroxypropylcellulose) (HPC)): 90 % of control

C=C1C(O)C2(O)OCC34C(CC5C(C)=CC(=O)C(O)C5(C)C23)OC(=O)C(OC(=O)C/C=C/CCCCCCCC)C14 (stereo unspecified)
T/C (dose: 2.0 mg/kg/injection, vehicle: saline + alcohol): 96 % of control
T/C (dose: 2.88 mg/kg/injection, vehicle: saline + alcohol): 116 % of control
T/C (dose: 2.89 mg/kg/injection, vehicle: saline + alcohol): 112 % of control
T/C (dose: 4.0 mg/kg/injection, vehicle: saline + alcohol): 107 % of control
T/C (dose: 4.8 mg/kg/injection, vehicle: saline + alcohol): 110 % of control
T/C (dose: 13.33 mg/kg/injection, vehicle: saline + alcohol): 124 % of control
T/C (dose: 16.0 mg/kg/injection, vehicle: saline + alcohol): 114 % of control

COC(=O)Nc1ccc(Cc2ccc(NC(=O)OC)cc2)cc1
T/C [1]: 95 % of control
T/C [2]: 93 % of control and 94 % of control
T/C [3]: 103 % of control and 119 % of control
T/C [10]: 153 % of control
T/C [13]: 160 % of control

CC1C=NNC1=O (stereo unspecified)
T/C [8]: 103 % of control
T/C [9]: 101 % of control
T/C [14]: 121 % of control
T/C (dose: 400.0 mg/kg/injection, vehicle: Klucel (hydroxypropylcellulose) (HPC)): 102 % of control
T/C (dose: 800.0 mg/kg/injection, vehicle: Klucel (hydroxypropylcellulose) (HPC)): 112 % of control

O=NN(CCCl)C(=O)NCCCl
T/C (dose: 1.5 mg/kg/injection, vehicle: saline + alcohol): 116 % of control
T/C (dose: 6.0 mg/kg/injection, vehicle: saline + alcohol): 163 % of control and 164 % of control
T/C (dose: 12.0 mg/kg/injection, vehicle: saline + alcohol): 224 % of control and 292 % of control
T/C (dose: 24.0 mg/kg/injection, vehicle: saline + alcohol): 248 % of control and 292 % of control
T/C (dose: 48.0 mg/kg/injection, vehicle: saline + alcohol): 244 % of control

CC(=O)OC1OC(=O)C(C)(C(C)=O)C1C (stereo unspecified)
T/C (dose: 2.5 mg/kg/injection, vehicle: distilled water + alcohol): 100 % of control
T/C (dose: 5.0 mg/kg/injection, vehicle: distilled water + alcohol): 105 % of control
T/C (dose: 10.0 mg/kg/injection, vehicle: distilled water + alcohol): 104 % of control
T/C (dose: 20.0 mg/kg/injection, vehicle: distilled water + alcohol): 104 % of control
T/C (dose: 40.0 mg/kg/injection, vehicle: distilled water + alcohol): 95 % of control

[Na+]
T/C (dose: 50.0 mg/kg/injection, vehicle: water): 94 % of control
T/C (dose: 100.0 mg/kg/injection, vehicle: water): 97 % of control
T/C (dose: 200.0 mg/kg/injection, vehicle: water): 101 % of control
T/C (dose: 400.0 mg/kg/injection, vehicle: water): 88 % of control
T/C (dose: 800.0 mg/kg/injection, vehicle: water): 98 % of control
